The values below come from US20140163023A1, “DIHYDROPYRROLO PYRIMIDINE DERIVATIVES AS MTOR INHIBITORS” (Cellzome Limited, priority 2011, published 2014).

The target of one assay is T1, PI3Kγ (Homo sapiens, UniProt P48736).
T1 construct: endogenous in cells; host or cells: Jurkat (ATCC TIB-152, clone E6-1) and Ramos (ATCC CRL-1596), 1:1 lysate mix
Kind of assay: kinobeads assay, PI3Kγ. The assay is classed as binding. Conditions: 1:1 mix of Jurkat and Ramos cell lysates, read-out: Inhibition values (IC50 in μM) as determined in the kinobeads assay, PI3Kγ. How it is done:
(§1) The compounds of the present invention as described were tested in the mTOR kinobeads assay as described below. Briefly, test compounds (at various concentrations) and the affinity matrix (1:1 mixture of beads with immobilized phenylthiazole ligand 1 and beads with immobilized phenylmorpholin-chromen ligand; WO 2009/098021) were added to cell lysate aliquots and allowed to bind to the proteins in the lysate sample. After the incubation time the beads with captured proteins were separated from the lysate. Bound proteins were then eluted and the presence of mTOR, PI3Kα, PI3Kβ, PI3Kγ, PI3Kδ and DNA-dependent protein kinase (DNA-PK) was detected and quantified using a specific antibody in a dot blot procedure and the Odyssey infrared detection system. Dose response curves for individual kinases were generated and IC50 values calculated. Kinobeads assays for PI3 kinases (WO-A 2008/015013) and for kinase selectivity profiling (WO 2009/098021) have been previously described.
(§2) Washing of Affinity Matrix
(§3) The affinity matrix was washed two times with 15 ml of 1×DP buffer containing 0.2% NP40 (IGEPAL® CA-630, Sigma, #13021) and then resupended in 5.5 ml of 1×DP buffer containing 0.2% NP40 (10% beads slurry).
(§4) 5×DP buffer: 250 mM Tris-HCl pH 7.4, 25% Glycerol, 7.5 mM MgCl2, 750 mM NaCl, 5 mM Na3VO4, filter the 5×-lysis buffer through 0.22 μm filter and store in aliquots at −80° C. The 5×DP buffer is diluted to 1×DP buffer containing 1 mM DTT and 25 mM NaF.
(§5) Preparation of Test Compounds
(§6) Stock solutions of test compounds were prepared in DMSO. In a 96 well plate 30 μl solution of diluted test compounds at 5 mM in DMSO were prepared. Starting with this solution a 1:3 dilution series (9 steps) was prepared. For control experiments (no test compound) a buffer containing 2% DMSO was used. Compound Pi-103 (Calbiochem catalogue number 528100) served as a positive control.
(§7) Cell Culture and Preparation of Cell Lysates
(§8) Jurkat cells (ATCC catalogue number TIB-152 Jurkat, clone E6-1) and Ramos cells (ATCC number CRL-1596) were grown in 1 litre Spinner flasks (Integra Biosciences, #182101) in suspension in RPMI 1640 medium (Invitrogen, #21875-034) supplemented with 10% Fetal Bovine Serum (Invitrogen) at a density between 0.15×10^6 and 1.2×10^6 cells/ml. Cells were harvested by centrifugation, washed once with 1×PBS buffer (Invitrogen, #14190-094) and cell pellets were frozen in liquid nitrogen and subsequently stored at −80° C.
(§9) Cells were homogenized in a Potter S homogenizer in lysis buffer: 50 mM Tris-HCl, 0.8% NP40, 5% glycerol, 150 mM NaCl, 1.5 mM MgCl2, 25 mM NaF, 1 mM sodium vanadate, 1 mM DTT, pH 7.5. One complete EDTA-free tablet (protease inhibitor cocktail, Roche Diagnostics, 1873580) per 25 ml buffer was added. The material was dounced 10 times using a mechanized POTTER S, transferred to 50 ml falcon tubes, incubated for 30 minutes on ice and spun down for 10 min at 20,000 g at 4° C. (10,000 rpm in Sorvall SLA600, precooled). The supernatant was transferred to an ultracentrifuge (UZ)-polycarbonate tube (Beckmann, 355654) and spun for 1 hour at 100.000 g at 4° C. (33.500 rpm in Ti50.2, precooled). The supernatant was transferred again to a fresh 50 ml falcon tube, the protein concentration was determined by a Bradford assay (BioRad) and samples containing 50 mg of protein per aliquot were prepared. The samples were immediately used for experiments or frozen in liquid nitrogen and stored frozen at −80° C.
(§10) Cell lysate (approximately 50 mg protein per plate) was thawed in a water bath at room temperature and then kept on ice. To the thawed cell lysate 1×DP 0.8% NP40 buffer containing protease inhibitors (1 tablet for 25 ml buffer; EDTA-free protease inhibitor cocktail; Roche Diagnostics 1873580) was added in order to reach a final protein concentration of 5 mg/ml total protein. For the kinobeads experiment a 1:1 mix of Jurkat and Ramos cell lysates was used. The diluted cell lysate was stored on ice. […]

In a further assay the target is T2, mTOR (Homo sapiens, UniProt P42345).
T2 construct: endogenous in cells; host or cells: Jurkat (ATCC TIB-152, clone E6-1) and Ramos (ATCC CRL-1596), 1:1 lysate mix
In words: mTOR kinobeads assay (competition binding in cell lysate, dot blot detection). Conditions: 1:1 mix of Jurkat and Ramos cell lysates, read-out: Inhibition values (IC50 in μM) as determined in the kinobeads assay, mTor. How it is done: Determination of the Effect of the Compounds According to the Invention on mTOR
as §1, §2, §3, §4, §5, §6, §7, §8, §9
Cell lysate (approximately 50 mg protein per plate) was thawed in a water bath at room temperature and then kept on ice. To the thawed cell lysate 1×DP 0.8% NP40 buffer containing protease inhibitors (1 tablet for 25 ml buffer; EDTA-free protease inhibitor cocktail; Roche Diagnostics 1873580) was added in order to reach a final protein concentration of 5 mg/ml total protein. For the kinobeads experiment a 1:1 mix of Jurkat and Ramos cell lysates was used. […]

For another assay, the target named is T3, PI3Kβ (Homo sapiens, UniProt P42338).
T3 construct: endogenous in cells; host or cells: Jurkat (ATCC TIB-152, clone E6-1) and Ramos (ATCC CRL-1596), 1:1 lysate mix
T3 sequence (P42338 whole entry): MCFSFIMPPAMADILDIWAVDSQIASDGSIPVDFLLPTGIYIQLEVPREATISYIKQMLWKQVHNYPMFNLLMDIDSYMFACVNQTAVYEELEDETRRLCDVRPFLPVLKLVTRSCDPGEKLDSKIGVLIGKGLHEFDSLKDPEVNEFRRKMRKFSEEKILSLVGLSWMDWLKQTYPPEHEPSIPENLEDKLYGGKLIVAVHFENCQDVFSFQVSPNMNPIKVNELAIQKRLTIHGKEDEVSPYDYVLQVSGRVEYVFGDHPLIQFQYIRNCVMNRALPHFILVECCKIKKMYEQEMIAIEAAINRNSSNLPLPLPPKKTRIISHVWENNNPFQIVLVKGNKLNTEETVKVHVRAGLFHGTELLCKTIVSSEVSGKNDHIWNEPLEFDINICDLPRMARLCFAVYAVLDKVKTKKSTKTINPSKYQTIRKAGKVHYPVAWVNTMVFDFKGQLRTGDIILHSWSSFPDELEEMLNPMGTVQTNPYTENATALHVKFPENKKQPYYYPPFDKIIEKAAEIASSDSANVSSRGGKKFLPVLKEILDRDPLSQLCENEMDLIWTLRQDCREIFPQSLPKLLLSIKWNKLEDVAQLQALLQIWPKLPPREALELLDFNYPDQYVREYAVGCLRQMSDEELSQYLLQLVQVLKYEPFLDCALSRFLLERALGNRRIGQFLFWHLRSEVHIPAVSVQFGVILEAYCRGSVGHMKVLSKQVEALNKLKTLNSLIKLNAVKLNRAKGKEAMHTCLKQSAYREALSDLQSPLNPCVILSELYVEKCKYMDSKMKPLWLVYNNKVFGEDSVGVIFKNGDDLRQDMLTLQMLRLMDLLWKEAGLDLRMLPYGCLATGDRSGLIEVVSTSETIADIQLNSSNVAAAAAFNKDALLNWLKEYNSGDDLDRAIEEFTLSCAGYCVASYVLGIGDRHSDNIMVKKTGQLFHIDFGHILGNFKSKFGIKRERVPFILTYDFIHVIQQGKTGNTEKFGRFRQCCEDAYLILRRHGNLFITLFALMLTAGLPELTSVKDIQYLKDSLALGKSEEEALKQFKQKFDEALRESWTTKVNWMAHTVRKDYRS
T3 sequence (P27986 whole entry partner): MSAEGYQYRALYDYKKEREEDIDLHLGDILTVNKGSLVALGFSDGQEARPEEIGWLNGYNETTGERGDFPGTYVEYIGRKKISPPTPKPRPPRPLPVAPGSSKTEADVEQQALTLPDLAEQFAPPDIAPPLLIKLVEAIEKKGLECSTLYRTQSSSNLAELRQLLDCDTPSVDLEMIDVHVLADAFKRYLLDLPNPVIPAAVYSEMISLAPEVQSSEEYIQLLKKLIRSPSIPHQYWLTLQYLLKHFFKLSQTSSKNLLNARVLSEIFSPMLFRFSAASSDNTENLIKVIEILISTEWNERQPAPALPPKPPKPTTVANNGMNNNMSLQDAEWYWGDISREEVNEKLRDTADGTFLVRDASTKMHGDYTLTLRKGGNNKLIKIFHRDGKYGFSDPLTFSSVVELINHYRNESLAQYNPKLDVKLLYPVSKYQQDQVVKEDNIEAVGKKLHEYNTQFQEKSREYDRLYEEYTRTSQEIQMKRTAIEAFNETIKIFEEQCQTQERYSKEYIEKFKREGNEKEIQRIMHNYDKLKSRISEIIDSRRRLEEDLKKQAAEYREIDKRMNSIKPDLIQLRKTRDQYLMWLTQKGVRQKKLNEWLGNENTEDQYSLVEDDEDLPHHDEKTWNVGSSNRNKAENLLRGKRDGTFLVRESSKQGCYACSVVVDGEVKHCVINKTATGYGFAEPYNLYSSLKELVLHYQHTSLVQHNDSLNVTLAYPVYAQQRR
In words: kinobeads assay, PI3Kβ. Conditions: 1:1 mix of Jurkat and Ramos cell lysates, read-out: Inhibition values (IC50 in μM) as determined in the kinobeads assay, PI3Kβ. Type of assay: binding. The method, then: as §1, §2, §3, §4, §5, §6, §7, §8, §9, §10

Another assay addresses T4, PI3Kα (Homo sapiens, UniProt P42336).
T4 construct: endogenous in cells; host or cells: Jurkat (ATCC TIB-152, clone E6-1) and Ramos (ATCC CRL-1596), 1:1 lysate mix
Kind of assay: kinobeads assay, PI3Kα. The note with it: 1:1 mix of Jurkat and Ramos cell lysates, read-out: Inhibition values (IC50 in μM) as determined in the kinobeads assay, PI3Kα. Type of assay: binding. The method, then: as §1, §2, §3, §4, §5, §6, §7, §8, §9, §10

For assay [1], the target named is T5, DNA-dependent protein kinase (DNA-PK) (Homo sapiens, UniProt P78527).
T5 construct: endogenous in cells; host or cells: Jurkat (ATCC TIB-152, clone E6-1) and Ramos (ATCC CRL-1596), 1:1 lysate mix
Kind of assay: kinobeads assay, DNA-PK. The assay is classed as binding. Conditions: 1:1 mix of Jurkat and Ramos cell lysates, read-out: Inhibition values (IC50 in μM) as determined in the kinobeads assay, DNA-PK. How it is done: as §1, §2, §3, §4, §5, §6, §7, §8, §9, §10

The target in a further assay is T6, PI3Kδ (Homo sapiens, UniProt O00329).
T6 construct: endogenous in cells; host or cells: Jurkat (ATCC TIB-152, clone E6-1) and Ramos (ATCC CRL-1596), 1:1 lysate mix
T6 sequence (O00329 whole entry): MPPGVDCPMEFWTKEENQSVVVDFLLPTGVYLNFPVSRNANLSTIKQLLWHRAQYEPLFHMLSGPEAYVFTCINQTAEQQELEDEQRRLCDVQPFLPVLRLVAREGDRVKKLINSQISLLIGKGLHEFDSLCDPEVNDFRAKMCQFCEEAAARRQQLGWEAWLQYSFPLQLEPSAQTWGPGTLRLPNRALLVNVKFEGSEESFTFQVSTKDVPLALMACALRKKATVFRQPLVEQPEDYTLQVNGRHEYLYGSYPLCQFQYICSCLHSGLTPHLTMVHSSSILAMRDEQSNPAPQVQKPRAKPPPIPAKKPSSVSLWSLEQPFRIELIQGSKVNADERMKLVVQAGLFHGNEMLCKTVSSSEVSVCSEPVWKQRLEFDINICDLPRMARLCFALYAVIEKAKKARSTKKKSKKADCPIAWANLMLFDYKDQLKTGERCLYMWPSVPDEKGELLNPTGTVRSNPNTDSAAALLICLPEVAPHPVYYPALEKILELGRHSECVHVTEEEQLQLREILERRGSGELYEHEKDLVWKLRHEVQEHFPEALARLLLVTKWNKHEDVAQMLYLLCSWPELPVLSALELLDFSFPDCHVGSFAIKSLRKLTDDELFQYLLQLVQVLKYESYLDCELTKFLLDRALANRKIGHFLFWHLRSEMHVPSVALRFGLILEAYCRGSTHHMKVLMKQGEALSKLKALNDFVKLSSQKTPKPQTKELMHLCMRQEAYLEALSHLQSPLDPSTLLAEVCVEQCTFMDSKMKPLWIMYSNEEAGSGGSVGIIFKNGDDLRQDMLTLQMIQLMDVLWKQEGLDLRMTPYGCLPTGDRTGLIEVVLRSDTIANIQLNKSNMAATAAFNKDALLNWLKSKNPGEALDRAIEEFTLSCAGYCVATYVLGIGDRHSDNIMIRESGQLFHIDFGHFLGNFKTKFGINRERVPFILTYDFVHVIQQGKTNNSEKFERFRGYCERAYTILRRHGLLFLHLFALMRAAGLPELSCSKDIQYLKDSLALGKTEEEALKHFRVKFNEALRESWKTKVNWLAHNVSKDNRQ
T6 sequence (P27986 whole entry partner): as the sequence (P27986 whole entry partner) above
Kind of assay: kinobeads assay, PI3Kδ. Type of assay: binding. Conditions: 1:1 mix of Jurkat and Ramos cell lysates, read-out: Inhibition values (IC50 in μM) as determined in the kinobeads assay, PI3Kδ. How it is done:
as §1, §2, §3, §4, §5, §6, §7, §8, §9, §10

Structures are written as SMILES.

T1 sequence (P48736 whole entry): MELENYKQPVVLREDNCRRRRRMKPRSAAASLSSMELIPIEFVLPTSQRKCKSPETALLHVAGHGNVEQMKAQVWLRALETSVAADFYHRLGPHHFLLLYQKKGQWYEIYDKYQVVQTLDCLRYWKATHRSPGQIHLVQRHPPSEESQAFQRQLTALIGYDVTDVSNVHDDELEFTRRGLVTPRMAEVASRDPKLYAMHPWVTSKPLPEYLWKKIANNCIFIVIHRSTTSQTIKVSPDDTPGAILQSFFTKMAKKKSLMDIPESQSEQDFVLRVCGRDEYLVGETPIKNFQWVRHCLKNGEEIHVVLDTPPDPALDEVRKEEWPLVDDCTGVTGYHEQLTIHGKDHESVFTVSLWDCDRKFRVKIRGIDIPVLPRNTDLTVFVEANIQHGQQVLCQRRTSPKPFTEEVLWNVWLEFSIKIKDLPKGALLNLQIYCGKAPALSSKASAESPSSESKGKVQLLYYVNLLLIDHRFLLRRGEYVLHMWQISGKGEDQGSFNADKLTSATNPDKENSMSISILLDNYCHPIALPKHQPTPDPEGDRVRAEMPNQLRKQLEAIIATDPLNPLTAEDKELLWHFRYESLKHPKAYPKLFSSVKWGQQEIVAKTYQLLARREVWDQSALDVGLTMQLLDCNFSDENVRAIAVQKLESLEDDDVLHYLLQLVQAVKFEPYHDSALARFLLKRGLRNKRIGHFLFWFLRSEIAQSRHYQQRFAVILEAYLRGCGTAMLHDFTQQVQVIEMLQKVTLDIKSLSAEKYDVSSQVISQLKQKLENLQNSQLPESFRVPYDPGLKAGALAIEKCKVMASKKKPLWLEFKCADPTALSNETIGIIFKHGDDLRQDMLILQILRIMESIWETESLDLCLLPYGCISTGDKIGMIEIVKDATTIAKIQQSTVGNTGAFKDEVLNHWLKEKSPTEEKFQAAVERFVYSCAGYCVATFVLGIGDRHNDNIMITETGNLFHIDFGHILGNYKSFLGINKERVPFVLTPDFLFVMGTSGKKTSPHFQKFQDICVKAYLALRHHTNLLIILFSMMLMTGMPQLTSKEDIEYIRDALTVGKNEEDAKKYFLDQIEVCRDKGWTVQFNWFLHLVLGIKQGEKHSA
T4 sequence (P42336 whole entry): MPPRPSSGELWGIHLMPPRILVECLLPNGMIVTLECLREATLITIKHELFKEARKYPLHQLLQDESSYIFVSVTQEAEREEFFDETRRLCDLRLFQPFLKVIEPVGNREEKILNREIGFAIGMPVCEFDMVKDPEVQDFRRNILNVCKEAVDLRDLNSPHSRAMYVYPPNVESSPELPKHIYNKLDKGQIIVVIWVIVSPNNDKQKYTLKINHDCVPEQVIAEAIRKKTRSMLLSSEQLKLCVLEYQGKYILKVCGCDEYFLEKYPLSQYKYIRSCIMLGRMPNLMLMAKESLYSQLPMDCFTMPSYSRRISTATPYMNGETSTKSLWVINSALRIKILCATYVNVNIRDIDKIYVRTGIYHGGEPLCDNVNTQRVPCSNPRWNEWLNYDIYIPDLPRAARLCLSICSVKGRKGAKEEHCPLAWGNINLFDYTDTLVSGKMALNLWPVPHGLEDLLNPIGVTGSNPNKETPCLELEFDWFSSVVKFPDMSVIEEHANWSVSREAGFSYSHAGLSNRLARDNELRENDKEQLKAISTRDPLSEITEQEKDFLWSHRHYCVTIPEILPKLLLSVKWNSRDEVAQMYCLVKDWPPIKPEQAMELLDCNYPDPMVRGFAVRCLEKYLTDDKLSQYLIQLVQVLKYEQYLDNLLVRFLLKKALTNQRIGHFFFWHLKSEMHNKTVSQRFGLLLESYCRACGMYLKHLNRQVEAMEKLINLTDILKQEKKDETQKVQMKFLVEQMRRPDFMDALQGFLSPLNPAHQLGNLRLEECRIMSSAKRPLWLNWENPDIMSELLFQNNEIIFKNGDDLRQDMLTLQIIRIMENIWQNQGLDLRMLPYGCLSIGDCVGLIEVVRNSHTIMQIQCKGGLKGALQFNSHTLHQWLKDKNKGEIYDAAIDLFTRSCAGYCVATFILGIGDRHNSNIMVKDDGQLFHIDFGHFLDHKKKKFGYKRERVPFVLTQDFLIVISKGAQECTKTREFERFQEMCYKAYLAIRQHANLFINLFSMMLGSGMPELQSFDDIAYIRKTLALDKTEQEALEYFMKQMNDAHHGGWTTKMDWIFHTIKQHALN
T4 sequence (P27986 whole entry partner): as the sequence (P27986 whole entry partner) above

By IC50 is commonly meant the concentration needed to halve the response being measured. For `C[C@H]1COCCN1c1nc2c(c(-c3ccc(NC(=O)NC4CC4)cc3)n1)CNC2` [Example 1, (S)-1-cyclopropyl-3-(4-(2-(3-methylmorpholino)-6,7-dihydro-5H-pyrrolo[3,4-d]pyrimidin-4-yl)phenyl)urea], the half-inhibitory concentration (IC50) on PI3Kγ was 10 to 100 µM; on mTOR, 0.1 to 1 µM; on PI3Kβ, 10 to 100 µM; on PI3Kα, 10 to 100 µM; in assay [1] it was over 100 µM; on PI3Kδ it was 10 to 100 µM.

For the molecule `CCNC(=O)Nc1ccc(-c2nc(N3CCOC[C@@H]3C)nc3c2CNC3)cc1` [Example 2, (S)-1-ethyl-3-(4-(2-(3-methylmorpholino)-6,7-dihydro-5H-pyrrolo[3,4-d]pyrimidin-4-yl)phenyl)urea], the IC50 at PI3Kγ was in the range of 10 to 100 µM; at mTOR it was 0.1 to 1 µM; on PI3Kβ it was 10 to 100 µM; at PI3Kα, 10 to 100 µM; in assay [1] it was 10 to 100 µM; at PI3Kδ it was 10 to 100 µM.

For `CCNC(=O)Nc1ccc(-c2nc(N3CCOC[C@@H]3C)nc3c2CN(C=O)C3)cc1` [Example 3, (S)-1-ethyl-3-(4-(6-formyl-2-(3-methylmorpholino)-6,7-dihydro-5H-pyrrolo[3,4-d]pyrimidin-4-yl)phenyl)urea], the IC50 at PI3Kγ is 10 to 100 µM; at mTOR it was 0.1 to 1 µM; on PI3Kβ, 10 to 100 µM; on PI3Kα, 10 to 100 µM; in assay [1] it was over 100 µM; on PI3Kδ, 10 to 100 µM.

For the molecule `CCNC(=O)Nc1ccc(-c2nc(N3CCOCC3)nc3c2CNC3)cc1` [Example 4, 1-ethyl-3-(4-(2-morpholino-6,7-dihydro-5H-pyrrolo[3,4-d]pyrimidin-4-yl)phenyl)urea], the IC50 is 10 to 100 µM at PI3Kγ; 0.1 to 1 µM at mTOR; 10 to 100 µM at PI3Kβ; 1 to 10 µM at PI3Kα; 10 to 100 µM in assay [1]; 10 to 100 µM at PI3Kδ.

Take `O=C(Nc1ccc(-c2nc(N3CCOCC3)nc3c2CNC3)cc1)NC1CC1` [Example 5, 1-cyclopropyl-3-(4-(2-morpholino-6,7-dihydro-5H-pyrrolo[3,4-d]pyrimidin-4-yl)phenyl)urea]: the IC50 on PI3Kγ lay within 10 to 100 µM; at mTOR it was 0.1 to 1 µM; at PI3Kβ it was 10 to 100 µM; at PI3Kα it was 10 to 100 µM; in assay [1], 10 to 100 µM; at PI3Kδ, 10 to 100 µM.

For the molecule `NC(=O)Nc1ccc(-c2nc(N3CCOCC3)nc3c2CNC3)cc1` [Example 6, 1-(4-(2-morpholino-6,7-dihydro-5H-pyrrolo[3,4-d]pyrimidin-4-yl)phenyl)urea], the half-inhibitory concentration (IC50) at PI3Kγ lay within 1 to 10 µM; on mTOR, 0.1 to 1 µM; at PI3Kβ, 1 to 10 µM; at PI3Kα, 1 to 10 µM; in assay [1], 10 to 100 µM; on PI3Kδ it was 1 to 10 µM.

For `CCNC(=O)Nc1ccc(-c2nc(N3CCOCC3)nc3c2CN(C(=O)OCC)C3)cc1` [Example 7, ethyl 4-(4-(3-ethylureido)phenyl)-2-morpholino-5H-pyrrolo[3,4-d]pyrimidine-6(7H)-carboxylate], the IC50 on PI3Kγ was over 100 µM; at mTOR, 1 to 10 µM; at PI3Kβ it was over 100 µM; at PI3Kα it was over 100 µM; in assay [1], over 100 µM; on PI3Kδ, over 100 µM.

As to `CCNC(=O)Nc1ccc(-c2nc(N3CCOC[C@@H]3C)nc3c2CN(C(=O)OCC)C3)cc1` [Example 8, (S)-ethyl 4-(4-(3-ethylureido)phenyl)-2-(3-methylmorpholino)-5H-pyrrolo[3,4-d]pyrimidine-6(7H)-carboxylate], the IC50 at PI3Kγ was over 100 µM; at mTOR it was 10 to 100 µM; at PI3Kβ, over 100 µM; on PI3Kα it was over 100 µM; in assay [1] it was over 100 µM; on PI3Kδ, over 100 µM.

On to `CCOC(=O)N1Cc2nc(N3CCOC[C@@H]3C)nc(-c3ccc(NC(=O)NC4CC4)cc3)c2C1` [Example 9, (S)-ethyl 4-(4-(3-cyclopropylureido)phenyl)-2-(3-methylmorpholino)-5H-pyrrolo[3,4-d]pyrimidine-6(7H)-carboxylate], for which the IC50 was over 100 µM at PI3Kγ; 1 to 10 µM at mTOR; over 100 µM on PI3Kβ; over 100 µM on PI3Kα; over 100 µM in assay [1]; over 100 µM at PI3Kδ.

Take `CCOC(=O)Nc1ccc(-c2nc(N3CCOC[C@@H]3C)nc3c2CNC3)cc1` [Example 10, (S)-ethyl (4-(2-(3-methylmorpholino)-6,7-dihydro-5H-pyrrolo[3,4-d]pyrimidin-4-yl)phenyl)carbamate]: the IC50 on PI3Kγ is over 100 µM; at mTOR it was 10 to 100 µM; on PI3Kβ, over 100 µM; at PI3Kα it was 10 to 100 µM; in assay [1], over 100 µM; on PI3Kδ, over 100 µM.

`C[C@H]1COCCN1c1nc2c(c(-c3ccc(NC(=O)NC4CC4)cc3)n1)CN(C)C2` [Example 11, (S)-1-cyclopropyl-3-(4-(6-methyl-2-(3-methylmorpholino)-6,7-dihydro-5H-pyrrolo[3,4-d]pyrimidin-4-yl)phenyl)urea]: the IC50 at PI3Kγ is 10 to 100 µM; on mTOR it was 0.1 to 1 µM; at PI3Kβ, 10 to 100 µM; at PI3Kα, 10 to 100 µM; in assay [1], 10 to 100 µM; on PI3Kδ, 10 to 100 µM.

Consider `CC(=O)N1Cc2nc(N3CCOC[C@@H]3C)nc(-c3ccc(NC(=O)NC4CC4)cc3)c2C1` [Example 12, (S)-1-(4-(6-acetyl-2-(3-methylmorpholino)-6,7-dihydro-5H-pyrrolo[3,4-d]pyrimidin-4-yl)phenyl)-3-cyclopropylurea], for which the IC50 at PI3Kγ was over 100 µM; on mTOR, 1 to 10 µM; at PI3Kβ, 10 to 100 µM; on PI3Kα, 10 to 100 µM; in assay [1], over 100 µM; on PI3Kδ, 10 to 100 µM.
